Laboratory results published in US7084239B1, “Cancer peptides of NY-ESO-1/CAG-3” (The United States of America as represented by the …, priority 1997, dated 2006).

Test system: CTL clone 5
Experiment: GM-CSF release by CTL clone 5 on peptide-pulsed EBV B cells
Assay type: cell-based, human
Conditions: for GM-CSF release by CTL clone 5, EXPT. 2 (586EBV): 586EBV cells; for GM-CSF release by CTL clone 5, EXPT. 2 (586EBV) / GM-CSF release by CTL clone 5, EXPT. 1 (1510EBV): peptide 0.1 μg/ml for 90 min, 5 × 10^4 CTL clone 5; for GM-CSF release by CTL clone 5, EXPT. 1 (1510EBV): 1510EBV cells; for CTL clone 5 GM-CSF release: 1510EBV cells incubated with peptide at 0.1 μg/ml for 90 min
Method: DNA transfection and GM-CSF assay were done as previously described (Wang, R. F., P. F. Robbins, Y. Kawakami, X. Q. Kang, and S. A. Rosenberg, 1995, J. Exp. Med. 181:799–804). Briefly, […] of DNA carrying a different fragment and 50 ng of the HLA-A31 DNA were mixed with 2 μl of lipofectamine in 100 μl of serum-free DMEM for 15–45 min. The DNA/lipofectamine mixture was then added to the COS-7 (5×10^4) cells and incubated overnight. The following day, cells were washed twice with DMEM medium. TIL586, CTL clone 5 or CTL clone 10 were added at a concentration of 5×10^4 cells/well in AIM-V medium containing 120 IU/ml of IL-2. After 18–24 h incubation, 100 μl of supernatant was collected and GM-CSF was measured in a standard ELISA assay (R+D Systems, Minneapolis, Minn.). For peptides, 586EBV, 1510EBV and T2 cells were incubated with peptides at 37° C. for 90 min, and then washed three times with AIM-V medium containing 120 IU/ml of IL-2. T cells were added and incubated for additional 18–24 h, 100 μl of supernatant was collected for GM-CSF assay. In some experiments, IFN-γ release assays were done using a standard ELISA kit (Endogen, Woburn, Mass.).
These peptides were pulsed onto HLA-A31-positive 1510EBV B cells and tested for their ability to stimulate cytokine release by CTL clone 5. […] CTL clone 10 recognized the same peptide as CTL clone 5 (data not shown). […] The reactivity of CTL clone 5 was undetectable when either the ESO9-54 or the ESO10-127 peptides were used at concentrations below 100 nM to sensitize EBV cells.

Row | Sequence | GM-CSF release by CTL clone 5, EXPT. 2 (586EBV) | GM-CSF release by CTL clone 5, EXPT. 1 (1510EBV) | CTL clone 5 GM-CSF release
1 | AAGPGGGAPR (listed as Homo sapiens) | 676 (SEQ. ID NO: 34) | 688 | –
2 | AARASGPGGGAPR (listed as Homo sapiens) | 738 (SEQ. ID NO: 28) | 844 | –
3 | AASGLNGCCR (listed as Homo sapiens) [ESO10-68] | – | – | <50 (SEQ. ID NO: 21) pg/ml
4 | AGAARASGPGGGAPR (listed as Homo sapiens) | 532 (SEQ. ID NO: 26) | 728 | –
5 | AIGPGGGAPR (listed as Homo sapiens) | 550 (SEQ. ID NO: 35) | 428 | –
6 | ALGPGGGAPR (listed as Homo sapiens) | 378 (SEQ. ID NO: 36) | 200 | –
7 | AQPPSGQRR (listed as Homo sapiens) [ESO9-90] | – | – | <50 (SEQ. ID NO: 6) pg/ml
8 | ARASGPGGGAPR (listed as Homo sapiens) | 738 (SEQ. ID NO: 29) | 840 | –
9 | ASGPGGGAPH (listed as Homo sapiens) | <50 (SEQ. ID NO: 40) | <50 | –
10 | ASGPGGGAPK (listed as Homo sapiens) | <50 (SEQ. ID NO: 39) | <50 | –
11 | ASGPGGGAPRG (listed as Homo sapiens) | <50 (SEQ. ID NO: 32) | <50 | –
12 | ATGPGGGAPR (listed as Homo sapiens) | 1158 (SEQ. ID NO: 38) | 1630 | –
13 | ATPMEAELAR (listed as Homo sapiens) [ESO10-97] | – | – | <50 (SEQ. ID NO: 17) pg/ml
14 | AVGPGGGAPR (listed as Homo sapiens) | 512 (SEQ. ID NO: 37) | 556 | –
15 | FLAQPPSGQR (listed as Homo sapiens) [ESO10-170] | – | – | <50 (SEQ. ID NO: 18) pg/ml
16 | GAARASGPGGGAPR (listed as Homo sapiens) | 678 (SEQ. ID NO: 27) | 659 | –
17 | GATGGRGPR (listed as Homo sapiens) [ESO9-38] | – | – | <50 (SEQ. ID NO: 9) pg/ml
18 | GPGGGAPR (listed as Homo sapiens) | <50 (SEQ. ID NO: 31) | <50 | –
19 | GPRGAGAAR (listed as Homo sapiens) [ESO9-45] | – | – | <50 (SEQ. ID NO: 10) pg/ml
20 | IRLTAADHR (listed as Homo sapiens) [ESO9-35] | – | – | <50 (SEQ. ID NO: 13) pg/ml
21 | LAQPPSGQR (listed as Homo sapiens) [ESO9-89] | – | – | <50 (SEQ. ID NO: 11) pg/ml
22 | LAQPPSGQRR (listed as Homo sapiens) [ESO10-171] | – | – | <50 (SEQ. ID NO: 22) pg/ml
23 | LNGCCRCGAR (listed as Homo sapiens) [ESO10-72] | – | – | <50 (SEQ. ID NO: 24) pg/ml
24 | LSGPGGGAPR (listed as Homo sapiens) | <50 (SEQ. ID NO: 43) | <50 | –
25 | PMEAELARR [ESO9-99] | – | – | <50 (SEQ. ID NO: 8) pg/ml
26 | RASGPGGGAPR (listed as Homo sapiens) | 708 (SEQ. ID NO: 30) | 851 | –
27 | RCGARGPESR (listed as Homo sapiens) [ESO10-77] | – | – | <50 (SEQ. ID NO: 20) pg/ml
28 | RGPRGAGAAR (listed as Homo sapiens) [ESO10-44] | – | – | <50 (SEQ. ID NO: 23) pg/ml
29 | RSGPGGGAPR (listed as Homo sapiens) | <50 (SEQ. ID NO: 44) | <50 | –
